Reference: patent US20140364431A1, “Quinoline and cinnoline derivatives and their applications” (Shenyang Pharmaceutical University, priority 2011, published 2014)
Values after ≈ are worked out from the molar mass of the structure shown. Structures can show the parent of a compound that is named as a salt. Where two headings read alike, the source gives them in different places.

Experiments:
[1] = system: SMMC-7721 (hepatoma cell); assay: In vitro anti-tumor cellular activity (MTT), SMMC-7721; type: cell-based, human; conditions: for IC50: Homo sapiens, read-out: SMMC-7721 IC50
[2] = system: MKN-45 (human gastric carcinoma cell); assay: In vitro anti-tumor cellular activity (MTT), MKN-45; type: cell-based; conditions: for IC50: Homo sapiens, read-out: MKN-45 IC50
[3] = system: H460 (human lung cancer cell); assay: In vitro anti-tumor cellular activity (MTT), H460; type: cell-based; conditions: for IC50: Homo sapiens, read-out: H460 IC50
[4] = molecular target: T1, c-Met (His-tagged recombinant human Met (Amino acids 974-ends)) (Homo sapiens, UniProt P08581); assay: c-Met kinase assay (ELISA); type: biochemical; conditions: 50 pM c-Met, 5 μM ATP, 20 min
T1 construct: His-tagged recombinant human Met (Amino acids 974-ends); His; host or cells: baculovirus expression
T1 sequence (P08581 974-1390 limits assumed): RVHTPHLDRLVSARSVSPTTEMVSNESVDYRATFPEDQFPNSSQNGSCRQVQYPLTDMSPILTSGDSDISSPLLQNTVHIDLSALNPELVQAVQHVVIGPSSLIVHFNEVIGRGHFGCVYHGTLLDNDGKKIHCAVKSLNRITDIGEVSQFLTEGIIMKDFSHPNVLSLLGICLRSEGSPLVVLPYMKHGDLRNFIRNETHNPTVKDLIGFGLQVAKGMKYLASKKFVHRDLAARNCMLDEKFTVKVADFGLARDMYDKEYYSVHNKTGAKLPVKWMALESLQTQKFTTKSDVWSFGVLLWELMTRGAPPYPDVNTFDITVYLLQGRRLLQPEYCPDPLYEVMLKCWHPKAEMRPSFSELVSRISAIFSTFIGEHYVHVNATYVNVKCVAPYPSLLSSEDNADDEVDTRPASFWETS
Procedure: c-Met kinase activity was measured with an ELISA reader.
The reaction mixture was removed by washing with 0.2 μg/mL conjugated horseradish peroxidase (HRP) monoclonal antibody specific for phosphotyrosine (PY20) detecting phosphorylation of the substrate polymer. 1M phosphoric acid was added to terminate the color, the chromogenic substrate (TMB) was tested by spectrophotometry at 450 nm.

[5] = system: U87MG (Human malignant glioblastoma cells); assay: In vitro anti-tumor cellular activity (MTT), U87MG; type: cell-based; conditions: for IC50: Homo sapiens, U-87 MG, read-out: U87MG IC50
[6] = system: HT-29 (colon cancer cell); assay: In vitro anti-tumor cellular activity (MTT), HT-29; type: cell-based, human; conditions: for IC50: Homo sapiens, read-out: HT-29 IC50

IC50 [4] [µM]	IC50 ([1]; MTT, 72 hours, SMMC-7721) [µg/mL]	IC50 ([2]; MTT, 72 hours, MKN-45) [µg/mL]	IC50 ([3]; NCI-H460, MTT, 72 hours, H460) [µg/mL]	IC50 ([5]; MTT, 72 hours, U87MG) [µg/mL]	IC50 ([6]; MTT, 72 hours, HT-29) [µg/mL]	Compound	IC50 ([1]; SMMC-7721, 72 h) [µg/mL]	IC50 ([2]; MKN-45, 72 h) [µg/mL]	IC50 ([3]; NCI-H460, 72 h) [µg/mL]	IC50 ([5]; 72 h) [µg/mL]	IC50 ([6]; HT-29, 72 h) [µg/mL]	SMMC-7721 IC50 ([1]; MTT, 72 hours, SMMC-7721) [µg/mL]	MKN-45 IC50 ([2]; MTT, 72 hours, MKN-45) [µg/mL]	H460 IC50 ([3]; MTT, 72 hours, H460) [µg/mL]	c-Met IC50 [4] [µg/mL]	U87MG IC50 ([5]; MTT, 72 hours, U87MG) [µg/mL]	HT-29 IC50 ([6]; MTT, 72 hours, HT-29) [µg/mL]
1.13	1.3	0.67	0.98	0.72	1.5	COc1cc2c(Oc3ccc(NC(=O)c4cn(-c5ccc(F)cc5)c5ccccc5c4=O)cc3F)ccnc2cc1OCCCN1CCN(C)CC1 [Example 46, N-(3-fluoro-4-((6-methoxy-7-(3-(4-methyl-piperazin-1-yl)propoxy)quinolin-4-yl)oxy)phenyl)-4-oxo-1-(4-fluorophenyl)-1,4-dihydroquinoline-3-carboxamide dihydrochloride]											
0.707	0.29 (≈ 0.41 µM)	0.47 (≈ 0.665 µM)	0.79 (≈ 1.12 µM)	0.21 (≈ 0.297 µM)	0.93 (≈ 1.32 µM)	COc1cc2c(Oc3ccc(NC(=O)c4cn(-c5ccccc5Cl)c5ccccc5c4=O)cc3F)ccnc2cc1OCCCN1CCCCC1 [Example 53, N-(3-fluoro-4-((6-methoxy-7-(3-(piperidin-1-yl)propoxy)quinolin-4-yl)oxy)phenyl)-1-(2-chlorophenyl)-4-oxo-1,4-dihydroquinoline-3-carboxamide]											
1.52	1.6 (≈ 2.21 µM)	2.2 (≈ 3.04 µM)	2.5 (≈ 3.46 µM)	1.7 (≈ 2.35 µM)	0.96 (≈ 1.33 µM)	COc1cc2c(Oc3ccc(NC(=O)c4nn(-c5ccc(Cl)cc5)c5ccccc5c4=O)cc3F)cnnc2cc1OCCCN1CCC(C)CC1 [Example 67, N-(3-fluoro-4-((6-methoxy-7-(3-(4-methylpiperidin-1-yl)propoxy)cinnolin-4-yl)oxy)phenyl)-1-(4-chlorophenyl)-4-oxo-1,4-dihydrocinnoline-3-carboxamide]											
1.55	1.3 (≈ 1.84 µM)	2.6 (≈ 3.67 µM)	2.3 (≈ 3.25 µM)	1.8 (≈ 2.54 µM)	2.1 (≈ 2.97 µM)	COc1cc2c(Oc3ccc(NC(=O)c4nn(-c5ccc(F)cc5)c5ccccc5c4=O)cc3F)cnnc2cc1OCCCN1CCN(C)CC1 [Example 69, N-(3-fluoro-4-((6-methoxy-7-(3-(4-methylpiperazin-1-yl)propoxy)cinnolin-4-yl)oxy)phenyl)-1-(4-fluorophenyl)-4-oxo-1,4-dihydrocinnoline-3-carboxamide]											
0.568	1.1 (≈ 1.56 µM)	0.34 (≈ 0.482 µM)	0.54 (≈ 0.766 µM)	0.49 (≈ 0.695 µM)	0.57 (≈ 0.809 µM)	COc1cc2c(Oc3ccc(NC(=O)c4cn(-c5ccccc5F)c5ccccc5c4=O)cc3F)ccnc2cc1OCCCN1CCC(C)CC1 [Example 47, N-(3-fluoro-4-((6-methoxy-7-(3-(4-methylpiperidin-1-yl)propoxy)quinolin-4-yl)oxy)phenyl)-1-(2-fluorophenyl)-4-oxo-1,4-dihydroquinoline-3-carboxamide]											
0.419	1.6 (≈ 2.23 µM)	0.7 (≈ 0.977 µM)	0.8 (≈ 1.12 µM)	1.8 (≈ 2.51 µM)	1.4 (≈ 1.95 µM)	COc1cc2c(Oc3ccc(NC(=O)c4nn(-c5ccc(C)cc5C)c5ccccc5c4=O)cc3F)ccnc2cc1OCCCN1CCN(C)CC1 [Example 26, N-(3-fluoro-4-((6-methoxy-7-(3-(4-methylpiperazin-1-yl)propoxy)quinolin-4-yl)oxy)phenyl)-1-(2,4-dimethylphenyl)-4-oxo-1,4-dihydrocimloline-3-carboxamide]											
0.138	0.74 (≈ 1.02 µM)	0.21 (≈ 0.291 µM)	0.75 (≈ 1.04 µM)	0.12 (≈ 0.166 µM)	0.2 (≈ 0.277 µM)	COc1cc2c(Oc3ccc(NC(=O)c4cn(-c5ccccc5Cl)c5ccccc5c4=O)cc3F)ccnc2cc1OCCCN1CCN(C)CC1 [Example 56, N-(3-fluoro-4-((6-methoxy-7-(3-(4-methylpiperazin-1-yl)propoxy)quinolin-4-yl)oxy)phenyl)-1-(2-chlorophenyl)-4-oxo-1,4-dihydroquinoline-3-carboxamide]											
0.869	0.87 (≈ 1.26 µM)	0.45 (≈ 0.651 µM)	0.58 (≈ 0.84 µM)	0.35 (≈ 0.507 µM)	0.38 (≈ 0.55 µM)	COc1cc2c(Oc3ccc(NC(=O)c4cn(-c5ccccc5F)c5ccccc5c4=O)cc3F)ccnc2cc1OCCCN1CCCCC1 [Example 50, N-(3-fluoro-4-((6-methoxy-7-(3-(piperidin-1-yl)propoxy)quinolin-4-yl)oxy)phenyl)-1-(2-fluorophenyl)-4-oxo-1,4-dihydroquinoline-3-carboxamide]											
2.27	1.8 (≈ 2.55 µM)	0.67 (≈ 0.949 µM)	1.4 (≈ 1.98 µM)	0.87 (≈ 1.23 µM)	1.1 (≈ 1.56 µM)	COc1cc2c(Oc3ccc(NC(=O)c4cn(-c5ccccc5F)c5ccccc5c4=O)cc3F)ccnc2cc1OCCCN1CCN(C)CC1 [Example 52, N-(3-fluoro-4-((6-methoxy-7-(3-(4-methylpiperazin-1-yl)propoxy)quinolin-4-yl)oxy)phenyl)-1-(2-fluorophenyl)-4-oxo-1,4-dihydroquinoline-3-carboxamide]											

More lines, now with the values behind:

Compound	IC50 [4] [µM]	IC50 ([1]; MTT, 72 hours, SMMC-7721) [µg/mL]	IC50 ([2]; MTT, 72 hours, MKN-45) [µg/mL]	IC50 ([3]; NCI-H460, MTT, 72 hours, H460) [µg/mL]	IC50 ([5]; MTT, 72 hours, U87MG) [µg/mL]	IC50 ([6]; MTT, 72 hours, HT-29) [µg/mL]	IC50 ([1]; SMMC-7721, 72 h) [µg/mL]	IC50 ([2]; MKN-45, 72 h) [µg/mL]	IC50 ([3]; NCI-H460, 72 h) [µg/mL]	IC50 ([5]; 72 h) [µg/mL]	IC50 ([6]; HT-29, 72 h) [µg/mL]	SMMC-7721 IC50 ([1]; MTT, 72 hours, SMMC-7721) [µg/mL]	MKN-45 IC50 ([2]; MTT, 72 hours, MKN-45) [µg/mL]	H460 IC50 ([3]; MTT, 72 hours, H460) [µg/mL]	c-Met IC50 [4] [µg/mL]	U87MG IC50 ([5]; MTT, 72 hours, U87MG) [µg/mL]	HT-29 IC50 ([6]; MTT, 72 hours, HT-29) [µg/mL]
COc1cc2c(Oc3ccc(NC(=O)c4nn(-c5ccc(Br)cc5)c5ccccc5c4=O)cc3F)ccnc2cc1OCCCN1CCOCC1 [Example 39, N-(3-fluoro-4-((6-methoxy-7-(3-(morpholin-4-yl)propoxy)quinolin-4-yl)oxy)phenyl)-1-(4-bromophenyl)-4-oxo-1,4-dihydrocinnoline-3-carboxamide]	1.33						2.1 (≈ 2.78 µM)	1.4 (≈ 1.86 µM)	2.3 (≈ 3.05 µM)	1.8 (≈ 2.39 µM)	0.87 (≈ 1.15 µM)						
N-(3-fluoro-4-((6-methoxy-7-(3-(4-methylpiperidin-1-yl)propoxy)quinolin-4-yl)oxy)phenyl)-1-(3,4-difluorophenyl)-4-oxo-1,4-dihydroquinoline-3-carboxamide [Example 58]												1.1	1.8	1.4	0.72	2.1	0.95
COc1cc2c(Oc3ccc(NC(=O)c4nn(-c5ccccc5Br)c5ccccc5c4=O)cc3F)ccnc2cc1OCCCN1CCN(C)CC1 [Example 35, N-(3-fluoro-4-((6-methoxy-7-(3-(4-methylpiperazin-1-yl)propoxy)quinolin-4-yl)oxy)phenyl)-1-(2-bromophenyl)-4-oxo-1,4-dihydrocinnoline-3-carboxamide]	1.43						1.5 (≈ 1.95 µM)	2.1 (≈ 2.74 µM)	2.5 (≈ 3.26 µM)	1.3 (≈ 1.69 µM)	0.9 (≈ 1.17 µM)						
COc1cc2c(Oc3ccc(NC(=O)c4cn(-c5ccccc5Cl)c5ccccc5c4=O)cc3F)ccnc2cc1OCCCN1CCCC1 [Example 55, N-(3-fluoro-4-((6-methoxy-7-(3-(pyrrolidin-1-yl)propoxy)quinolin-4-yl)oxy)phenyl)-1-(2-chlorophenyl)-4-oxo-1,4-dihydroquinoline-3-carboxamide]	1.3						0.53 (≈ 0.765 µM)	0.29 (≈ 0.418 µM)	0.74 (≈ 1.07 µM)	0.18 (≈ 0.26 µM)	0.37 (≈ 0.534 µM)						
N-(3-fluoro-4-((6-methoxy-7-(3-(4-methylpiperidin-1-yl)propoxy)quinolin-4-yl)oxy)phenyl)-1-(2-chlorophenyl)-4-oxo-1,4-dihydrocinnoline-3-carboxamide dihydrochloride [Example 15]												1.5	0.8	1	0.66	0.2	0.6
COc1cc2c(Oc3ccc(NC(=O)c4nn(-c5ccc(Br)cc5F)c5ccccc5c4=O)cc3F)cnnc2cc1OCCCN1CCOCC1 [Example 68, N-(3-fluoro-4-((6-methoxy-7-(3-(morpholin-4-yl)propoxy)cinnolin-4-yl)oxy)phenyl)-1-(4-bromo-2-fluorophenyl)-4-oxo-1,4-dihydrocinnoline-3-carboxamide]	1.16	2.9 (≈ 3.75 µM)	2.5 (≈ 3.23 µM)	1.5 (≈ 1.94 µM)	1.3 (≈ 1.68 µM)	2.1 (≈ 2.71 µM)											
COc1cc2c(Oc3ccc(NC(=O)c4nn(-c5ccc(Cl)cc5)c5ccccc5c4=O)cc3F)cnnc2cc1OCCCN1CCOCC1 [Example 66, N-(3-fluoro-4-((6-methoxy-7-(3-(morpholin-4-yl)propoxy)cinnolin-4-yl)oxy)phenyl)-1-(4-chlorophenyl)-4-oxo-1,4-dihydrocinnoline-3-carboxamide]	0.562	1.7 (≈ 2.39 µM)	2.4 (≈ 3.37 µM)	0.89 (≈ 1.25 µM)	2.1 (≈ 2.95 µM)	1.4 (≈ 1.97 µM)											
N-(3-fluoro-4-((6-methoxy-7-(3-(piperidin-1-yl)propoxy)quinolin-4-yl)oxy)phenyl)-1-(4-fl uorophenyl)-4-oxo-1,4-dihydroquinoline-3-carboxamide dihydrochloride [Example 49]												0.99	0.76	1.1	0.6	0.9	1.3
